In ChEMBL document CHEMBL1201862, “PubChem BioAssay data set” (2004):
The source made the active and inactive calls.

Legend:
[1] = molecular target: T1, Probable nicotinate-nucleotide adenylyltransferase (Staphylococcus aureus (strain N315), UniProt P65502); type: functional, Staphylococcus aureus subsp. aureus N315; details: read-out: IC50_Mean;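 as to IC50 Mean: confirmatory dose-response retesting of NadD inhibitor hits first found in an ultra-high-throughput screen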
[2] = molecular target: T1, Probable nicotinate-nucleotide adenylyltransferase; type: functional, Staphylococcus aureus subsp. aureus N315
[3] = molecular target: T2, Orexin/Hypocretin receptor type 1 (Homo sapiens, UniProt O43613); test: Homogeneous Time Resolved Fluorescence (HTRF)-based cell-based high throughput dose response assay for antagonists of the orexin 1 receptor (OX1R; HCRTR1). [Related pubchem assays (depositor defined):AID434989, AID435008, AID463079, AID485270, AID492963, AID492964, AID492965, AID493232, AID504717, AID504718]; type: functional
T2 sequence (O43613 whole entry): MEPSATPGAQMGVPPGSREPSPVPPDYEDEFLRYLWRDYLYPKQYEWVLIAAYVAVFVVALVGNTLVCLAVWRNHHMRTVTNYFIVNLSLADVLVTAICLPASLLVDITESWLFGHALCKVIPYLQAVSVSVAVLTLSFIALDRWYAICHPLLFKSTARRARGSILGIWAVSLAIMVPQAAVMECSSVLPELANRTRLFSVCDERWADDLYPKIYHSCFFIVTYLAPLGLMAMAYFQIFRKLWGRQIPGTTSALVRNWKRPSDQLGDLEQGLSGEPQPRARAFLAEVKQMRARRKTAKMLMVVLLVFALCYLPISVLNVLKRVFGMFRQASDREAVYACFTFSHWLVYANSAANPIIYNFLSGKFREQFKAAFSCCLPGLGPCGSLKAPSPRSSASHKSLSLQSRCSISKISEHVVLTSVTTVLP

[4] = (§1) Counterscreen for antagonists of the orexin 1 receptor (OX1R; HCRTR1): Fluorescence-based cell-based high throughput dose response assay to identify antagonists of the parental CHO cell line. [Related pubchem assays (depositor defined):AID434989, AID435008, AID463079, AID485270, AID492963, AID492964, AID492965, AID493232, AID504699, AID504701]; type: functional
Orexin receptor type 2 [5] = molecular target: T3, Orexin receptor type 2 (Homo sapiens, UniProt O43614); test: Counterscreen assay for antagonists of the orexin 1 receptor (OX1R; HCRTR1): Fluorescence-based cell-based dose response assay for antagonists of the orexin 2 receptor (OX2R; HCRTR2), run by assay provider.; type: functional
T3 sequence (O43614 whole entry): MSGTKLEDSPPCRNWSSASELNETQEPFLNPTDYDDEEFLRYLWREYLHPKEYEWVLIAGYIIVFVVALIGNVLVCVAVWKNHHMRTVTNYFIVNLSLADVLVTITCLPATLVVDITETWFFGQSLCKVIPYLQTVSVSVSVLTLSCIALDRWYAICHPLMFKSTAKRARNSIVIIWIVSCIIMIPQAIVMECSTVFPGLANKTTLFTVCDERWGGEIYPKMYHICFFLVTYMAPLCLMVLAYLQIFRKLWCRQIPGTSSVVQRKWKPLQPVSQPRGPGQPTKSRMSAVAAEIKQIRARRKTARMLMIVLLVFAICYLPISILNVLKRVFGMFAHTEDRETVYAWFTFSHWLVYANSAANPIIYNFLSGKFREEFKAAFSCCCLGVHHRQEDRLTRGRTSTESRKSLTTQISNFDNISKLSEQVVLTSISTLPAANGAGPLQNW

[6] = molecular target: T2, Orexin/Hypocretin receptor type 1; test: Fluorescence-based cell-based high throughput dose response assay for antagonists of the orexin 1 receptor (OX1R; HCRTR1). [Related pubchem assays (depositor defined):AID434989, AID435008, AID463079, AID485270, AID492963, AID492964, AID492965, AID493232, AID504717, AID504718]; type: functional
CHO-K1 = test: as §1, with “Homogeneous time resolved fluorescence (HTRF)-based” for “Fluorescence-based”, “cell-based” for “cell-based high throughput”, “CHO-K1” for “CHO”; type: functional; details: Cricetulus griseus;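 also: potency for inhibition of ATP-stimulated IP1 production as antagonists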
Orexin receptor type 2 [7] = molecular target: T3, Orexin receptor type 2; test: Counterscreen assay for antagonists of the orexin 1 receptor (OX1R; HCRTR1): Homogeneous Time Resolved Fluorescence (HTRF)-based cell-based dose response assay for antagonists of the orexin 2 receptor (OX2R; HCRTR2), run by assay provider.; type: functional
[8] = molecular target: T4, Oxysterols receptor LXR-beta (Homo sapiens, UniProt P55055); test: LXR agonists, Gal4 luciferase reporter, dose response, counter-screen for ssDAF-12 agonist project, cell-based, luminescence, HEK293, S. stercoralis campaign (AID 720737); type: functional; details: read-out: IC50 (the source's name)
T4 sequence (P55055 whole entry): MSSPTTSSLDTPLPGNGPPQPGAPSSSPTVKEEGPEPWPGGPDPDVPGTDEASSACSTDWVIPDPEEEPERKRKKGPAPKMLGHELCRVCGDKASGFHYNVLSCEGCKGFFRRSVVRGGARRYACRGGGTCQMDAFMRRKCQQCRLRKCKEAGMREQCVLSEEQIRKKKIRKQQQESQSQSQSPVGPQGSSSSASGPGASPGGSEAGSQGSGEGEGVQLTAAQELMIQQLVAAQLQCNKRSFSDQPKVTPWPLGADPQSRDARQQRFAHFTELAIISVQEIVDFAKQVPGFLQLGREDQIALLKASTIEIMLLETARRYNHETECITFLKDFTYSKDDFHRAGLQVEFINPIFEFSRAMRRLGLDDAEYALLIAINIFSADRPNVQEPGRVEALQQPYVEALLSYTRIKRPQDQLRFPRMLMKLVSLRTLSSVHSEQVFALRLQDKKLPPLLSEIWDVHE

[9] = Luminescence-based cell-based high throughput dose response assay to identify activators of the DAF-12 from the parasite S. stercoralis (ssDAF-12).; type: functional
[10] = CRF-BP/CRF-R2 complex antagonists, dose response, cell-based, uHTS hits, 384-well (AID 651639); type: functional, Homo sapiens; details: read-out: IC50_Mean
[11] = molecular target: T5, Corticotropin-releasing factor receptor 2/Corticotropin-releasing factor-binding protein (Homo sapiens, UniProt P24387+Q13324); test: Dose Response confirmation of uHTS hits for small molecule antagonists of the CRF-binding protein and CRF-R2 receptor complex.; type: functional; details: read-out: IC50_Mean
T5 sequence (Q13324 whole entry): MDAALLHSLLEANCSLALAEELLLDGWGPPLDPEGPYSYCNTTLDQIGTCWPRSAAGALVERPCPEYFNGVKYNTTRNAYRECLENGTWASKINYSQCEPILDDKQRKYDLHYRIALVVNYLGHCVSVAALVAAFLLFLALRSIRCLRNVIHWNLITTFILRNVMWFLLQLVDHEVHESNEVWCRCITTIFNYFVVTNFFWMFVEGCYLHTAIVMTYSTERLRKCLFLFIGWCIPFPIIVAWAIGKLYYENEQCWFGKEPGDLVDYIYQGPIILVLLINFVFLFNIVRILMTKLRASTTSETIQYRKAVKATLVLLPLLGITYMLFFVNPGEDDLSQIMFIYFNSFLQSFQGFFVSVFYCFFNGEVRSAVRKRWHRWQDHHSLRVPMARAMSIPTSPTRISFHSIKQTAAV
T5 sequence (P24387 whole entry): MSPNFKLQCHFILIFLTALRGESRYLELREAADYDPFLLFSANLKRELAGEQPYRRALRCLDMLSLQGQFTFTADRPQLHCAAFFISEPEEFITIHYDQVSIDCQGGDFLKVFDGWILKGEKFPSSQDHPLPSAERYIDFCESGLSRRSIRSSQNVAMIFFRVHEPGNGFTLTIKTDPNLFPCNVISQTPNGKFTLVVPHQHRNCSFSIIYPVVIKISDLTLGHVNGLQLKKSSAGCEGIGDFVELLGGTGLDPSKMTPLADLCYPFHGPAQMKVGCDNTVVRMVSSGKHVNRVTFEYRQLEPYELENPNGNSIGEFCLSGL

[12] = molecular target: T5, Corticotropin-releasing factor receptor 2/Corticotropin-releasing factor-binding protein; test: activators of CRF receptor 2 with binding protein – uHTS hits, confirmation (AID 602473); type: functional; details: read-out: EC50_Mean
[13] = A Cell Based Secondary Assay to Explore Cytotoxicity in THP-1 Cells of Compounds that Modulate Mycobacterium tuberculosis in Media Containing Glycerol versus Media without Glycerol (2).; type: functional
[14] = molecular target: T6, Replicative DNA helicase DnaB (Mycobacterium tuberculosis, UniProt P9WMR3); test: DnaB intein splicing inhibitors, dose response, biochemical, cell-free fluorescence (AID 449749); type: functional
T6 sequence (P9WMR3 whole entry): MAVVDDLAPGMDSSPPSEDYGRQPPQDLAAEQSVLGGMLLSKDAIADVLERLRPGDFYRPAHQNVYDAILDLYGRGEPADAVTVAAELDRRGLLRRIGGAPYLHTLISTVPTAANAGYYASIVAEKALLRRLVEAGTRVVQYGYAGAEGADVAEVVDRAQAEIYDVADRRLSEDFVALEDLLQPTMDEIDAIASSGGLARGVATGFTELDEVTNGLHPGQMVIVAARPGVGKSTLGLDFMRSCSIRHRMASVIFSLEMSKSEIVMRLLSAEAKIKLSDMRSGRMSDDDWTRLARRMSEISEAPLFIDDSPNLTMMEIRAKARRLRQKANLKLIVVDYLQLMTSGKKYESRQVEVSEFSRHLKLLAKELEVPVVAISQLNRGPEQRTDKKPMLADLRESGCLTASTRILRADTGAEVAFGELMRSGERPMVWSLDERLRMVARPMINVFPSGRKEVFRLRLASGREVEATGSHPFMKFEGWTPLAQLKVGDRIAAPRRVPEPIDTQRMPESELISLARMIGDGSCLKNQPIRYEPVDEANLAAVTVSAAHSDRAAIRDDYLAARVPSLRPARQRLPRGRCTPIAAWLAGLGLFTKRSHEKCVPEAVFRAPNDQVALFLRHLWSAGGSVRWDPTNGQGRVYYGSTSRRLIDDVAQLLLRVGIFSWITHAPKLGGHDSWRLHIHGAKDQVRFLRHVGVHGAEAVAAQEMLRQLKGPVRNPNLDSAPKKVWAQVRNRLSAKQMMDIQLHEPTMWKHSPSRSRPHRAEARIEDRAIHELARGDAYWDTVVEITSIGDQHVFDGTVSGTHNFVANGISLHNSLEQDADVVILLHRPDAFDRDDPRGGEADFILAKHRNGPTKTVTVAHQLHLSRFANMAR

Protein RecA = molecular target: T7, Protein RecA (Mycobacterium tuberculosis, UniProt P9WHJ3); test: Fluorescence Cell-Free Homogeneous Dose Retest to Identify Inhibitors of RecA-Intein Splicing Activity. [Related pubchem assays (depositor defined):AID2097, AID2223, AID489010, AID492950]; type: functional
T7 sequence (P9WHJ3 whole entry): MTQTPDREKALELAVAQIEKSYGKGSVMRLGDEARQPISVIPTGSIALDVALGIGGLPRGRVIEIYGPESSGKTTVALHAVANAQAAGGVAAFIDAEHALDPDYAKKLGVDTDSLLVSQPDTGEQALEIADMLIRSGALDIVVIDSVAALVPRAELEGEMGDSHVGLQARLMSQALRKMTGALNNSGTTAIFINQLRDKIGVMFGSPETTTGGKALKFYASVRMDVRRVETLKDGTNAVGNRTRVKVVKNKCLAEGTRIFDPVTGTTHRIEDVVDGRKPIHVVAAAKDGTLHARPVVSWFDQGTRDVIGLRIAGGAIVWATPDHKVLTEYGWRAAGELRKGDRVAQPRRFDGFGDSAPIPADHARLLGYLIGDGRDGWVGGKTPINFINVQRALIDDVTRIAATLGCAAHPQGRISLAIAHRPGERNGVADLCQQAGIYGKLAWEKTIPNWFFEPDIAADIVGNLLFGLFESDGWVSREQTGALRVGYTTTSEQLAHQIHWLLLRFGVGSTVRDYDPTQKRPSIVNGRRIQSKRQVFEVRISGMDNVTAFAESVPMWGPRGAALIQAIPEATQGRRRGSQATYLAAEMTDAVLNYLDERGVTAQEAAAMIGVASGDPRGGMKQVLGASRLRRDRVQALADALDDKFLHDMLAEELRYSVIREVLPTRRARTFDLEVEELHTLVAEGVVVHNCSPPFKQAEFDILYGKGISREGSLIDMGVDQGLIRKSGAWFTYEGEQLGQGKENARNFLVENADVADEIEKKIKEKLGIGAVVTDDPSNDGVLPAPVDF

[15] = Vero cell cytotoxicity, cytotoxicity control for M. tuberculosis inhibitor project, purified and synthesized samples, set 3 (AID 504684); type: functional
[16] = Shn3 3'UTR reporter inhibitors, dose response, cell-based, Clone20 osteoblasts, firefly luciferase, cherry-picked (AID 624132); type: functional;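 also: firefly luciferase luminescence from reporter carrying the Shn3 3'UTR in osteoblasts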
[17] = control 3'UTR Renilla luciferase suppression, dose response, counter-screen for Shn3 inhibitor project, cell-based, Clone20-Shn3RL, cherry-picked (AID 624133); type: functional
Protein Wnt-3a = Protein Wnt-3a (Mus musculus, UniProt P27467); test: Wnt3a-driven reporter signaling inhibition, dose response, selectivity assay for Gli-SUFU antagonist project, Wnt-LIGHT cells, luminescence (AID 651570); type: functional; details: read-out: IC50_Mean;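 also: Wnt-LIGHT reporter cells stimulated with conditioned medium from Wnt3a-producing cells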
Sequence of Protein Wnt-3a (P27467 whole entry): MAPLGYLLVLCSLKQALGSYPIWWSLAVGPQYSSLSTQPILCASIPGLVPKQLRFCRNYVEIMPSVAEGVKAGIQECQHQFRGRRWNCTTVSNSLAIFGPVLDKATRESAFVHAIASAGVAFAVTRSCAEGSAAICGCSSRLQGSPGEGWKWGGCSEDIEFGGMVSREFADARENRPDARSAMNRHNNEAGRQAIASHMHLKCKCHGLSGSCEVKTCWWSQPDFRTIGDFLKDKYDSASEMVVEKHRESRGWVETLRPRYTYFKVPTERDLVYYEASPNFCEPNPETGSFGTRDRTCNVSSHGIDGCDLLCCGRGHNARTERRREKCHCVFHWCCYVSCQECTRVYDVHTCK

T1 sequence (P65502 whole entry): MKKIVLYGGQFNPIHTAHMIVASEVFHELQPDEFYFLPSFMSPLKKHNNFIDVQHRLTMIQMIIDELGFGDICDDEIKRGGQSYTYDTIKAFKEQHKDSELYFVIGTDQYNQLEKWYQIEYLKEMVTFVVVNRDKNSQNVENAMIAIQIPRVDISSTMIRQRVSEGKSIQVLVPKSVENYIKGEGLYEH

NC(CSC1(c2ccc(Cl)cc2)c2ccccc2-c2ccccc21)C(=O)O (centres undefined)
IC50 [1]: 34.2 µM (active) | IC50 [2]: 11.7 µM (active)

Cc1ccc(NC(=O)c2ccc3ccccc3n2)nc1
IC50 [3]: 1.64 µM (active) | IC50 [4]: > 49.7 µM (inactive) | IC50 (Orexin receptor type 2 [5]): > 88.8 µM (inactive) | IC50 [6]: 10.4 µM (inactive) | IC50 (CHO-K1): > 66.2 µM (inactive) | IC50 (Orexin receptor type 2 [7]): 2.35 µM (active) | EC50 [8]: > 67.5 µM (inactive) | IC50 [9]: > 67.5 µM (inactive)

COC(=O)CSC1=C(C#N)C(c2ccc(Cl)cc2)C(C(=O)OC)C(=O)N1 (centres undefined)
IC50 [10]: 13.4 µM (active) | IC50 [11]: 24 µM (active) | EC50 [12]: > 53 µM (inactive)

O=C(NC(=S)Nc1c(Cl)ccc2nsnc12)c1ccccc1F
IC50 [10]: > 20 µM (inactive) | IC50 [11]: 2.88 µM (active) | EC50 [12]: > 53 µM (inactive)

O=C1C(Br)=Cc2cccc3cccc1c23
CC50 [13]: > 100 µM (active) | AC50 [14]: > 380 µM (inactive) | EC50 (Protein RecA): 0.581 µM (active) | CC50 [15]: 74.6 µM (active)

COc1ccc(-c2nn3c(-c4ccccc4)nnc3s2)cc1
IC50 [3]: 2.44 µM (active) | IC50 [4]: > 49.8 µM (inactive) | IC50 (Orexin receptor type 2 [5]): > 88.8 µM (inactive) | IC50 [6]: > 5.53 µM (active) | IC50 (CHO-K1): > 66.2 µM (inactive) | IC50 (Orexin receptor type 2 [7]): > 50 µM (inactive)

C=CCOc1nc2c(c(=O)n(C)c(=O)n2C)n1Cc1ccc(Cl)cc1
AC50 [16]: 1.03 µM (active) | AC50 [17]: 2.02 µM (active) | IC50 (Protein Wnt-3a): 1.88 µM (active)
